# From paper PMC2075610 (Biochimica et Biophysica Acta. Molecular Basis of Disease, 2006)
# How the values were obtained:
# [1] = target: T1, R190/N192 FPR (Homo sapiens, UniProt P21462); assay: biochemical; type: binding
# [2] = target: T2, R190/K192 FPR (Homo sapiens, UniProt P21462, N192K); assay: biochemical; type: binding
# [3] = target: T3, W190/N192 FPR (Homo sapiens, UniProt P21462, R190W); assay: biochemical; type: binding; details: Ki (nM ± SEM) for binding of peptides to W190/N192 FPR
# [4] = target: T1, R190/N192 FPR; assay: biochemical; type: biochemical
# [5] = target: T2, R190/K192 FPR; assay: biochemical; type: biochemical
# [6] = target: T3, W190/N192 FPR; assay: biochemical; type: biochemical
# [7] = target: T1, R190/N192 FPR; type: cell-based
# [8] = target: T2, R190/K192 FPR; type: cell-based
# [9] = target: T3, W190/N192 FPR; type: cell-based
# [10] = target: T1, R190/N192 FPR; type: cell-based; remark: listed apart in the source
# [11] = target: T2, R190/K192 FPR; type: cell-based; remark: listed apart in the source
# [12] = target: T3, W190/N192 FPR; type: cell-based; remark: listed apart in the source
# [13] = test system: FIV; details: cited from earlier work
# [14] = test system: FPR; details: cited from earlier work
# [15] = target: Coronavirus 229E spike 12mer (Human coronavirus 229E); assay: flow
# [16] = target: Coronavirus 229E spike 36mer (Human coronavirus 229E); assay: flow
# [17] = target: Coronavirus 229E spike 5mer (Human coronavirus 229E); assay: flow
# [18] = target: Coronavirus 229E spike 7mer (Human coronavirus 229E); assay: flow
# [19] = target: Coronavirus 229E spike N-terminal 7mer (Human coronavirus 229E); assay: flow
# [20] = target: Coronavirus OC43 spike 36mer (Human coronavirus OC43); assay: flow
# [21] = target: ETYIK-(Alexa Fluor)WPWWVWL (Human coronavirus 229E); assay: flow
# [22] = target: HIV-1 gp41 12mer (Human immunodeficiency virus 1); assay: flow
# [23] = target: HIV-2 envelope 37mer (Human immunodeficiency virus 2); assay: flow
# [24] = target: HKU-1 coronavirus spike peptide (Human coronavirus HKU1); assay: flow
# [25] = target: MMWLL; assay: flow
# [26] = target: SARS coronavirus spike 12mer (SARS coronavirus); assay: flow
# [27] = target: reverse 229E peptide; assay: flow
molecule,measurement,setting,value
CC[C@H](C)[C@H](NC(=O)[C@H](Cc1ccc(O)cc1)NC(=O)[C@@H](NC(=O)[C@@H](N)CCC(=O)O)[C@@H](C)O)C(=O)N[C@@H](CCCCN)C(=O)N[C@@H](Cc1c[nH]c2ccccc12)C(=O)N1CCC[C@H]1C(=O)N[C@@H](Cc1c[nH]c2ccccc12)C(=O)N[C@@H](Cc1c[nH]c2ccccc12)C(=O)N[C@H](C(=O)N[C@@H](Cc1c[nH]c2ccccc12)C(=O)N[C@@H](CC(C)C)C(=O)O)C(C)C,Ki,[1],533 ± 30 nM
same,Ki,[2],370 ± 30 nM
same,Ki,[3],270 ± 10 nM
same,EC50,[4],1600 ± 400 nM
same,stimulation of GTPγS binding,[4],neither ETYIKWPWWVWL nor MYVKWPWYVWL had any effect
same,EC50,[5],1600 ± 440 nM
same,stimulation of GTPγS binding,[5],neither ETYIKWPWWVWL nor MYVKWPWYVWL had any effect
same,EC50,[6],300 ± 120 nM
same,stimulation of GTPγS binding,[6],neither ETYIKWPWWVWL nor MYVKWPWYVWL had any effect
same,inhibition of arrestin translocation in response to formyl-Nle–Leu–Phe,[7],18 ± 4%
same,β-arrestin translocation,[7],did not cause translocation
same,inhibition of arrestin translocation in response to formyl-Nle–Leu–Phe,[8],20 ± 9%
same,β-arrestin translocation,[8],did not cause translocation
same,inhibition of arrestin translocation in response to formyl-Nle–Leu–Phe,[9],77 ± 10%
same,β-arrestin translocation,[9],did not cause translocation
same,inhibition of receptor downregulation in response to formyl-Nle–Leu–Phe,[10],16 ± 2%
same,surface receptor downregulation,[10],did not cause surface receptor downregulation
same,inhibition of receptor downregulation in response to formyl-Nle–Leu–Phe,[11],20 ± 2%
same,surface receptor downregulation,[11],did not cause surface receptor downregulation
same,inhibition of receptor downregulation in response to formyl-Nle–Leu–Phe,[12],64 ± 6%
same,surface receptor downregulation,[12],did not cause surface receptor downregulation
QLQKWEDWVRWI,inhibition of FIV infection (potency),[13],low nanomolar
WRWWWW,effect on FPR,[14],did not affect FPR
"Formyl peptide receptor (FPR R190/N192), P21462 (protein) METNSSLPTNISGGTPAVSAGYLFLDIITYLVFAVTFVLGVLGNGLVIWVAGFRMTHTVTTISYLNLAVADFCFTSTLPFFMVRKAMGGHWPFGWFLCKFVFTIVDINLFGSVFLIALIALDRCVCVLHPVWTQNHRTVSLAKKVIIGPWVMALLLTLPVIIRVTTVPGKTGTVACTFNFSPWTNDPKERINVAVAMLTVRGIIRFIIGFSAPMSIVAVSYGLIATKIHKQGLIKSSRPLRVLSFVAAAFFLCWSPYQVVALIATVRIRELLQGMYKEIGIAVDVTSALAFFNSCLNPMLYVFMGQDFRERLIHALPASLERALTEDSTQTSDTATNSTLPSAEVELQAK",Ki,[15],533 nM
same,Ki,[16],10000 nM
same,Ki,[17],1000 nM
same,Ki,[18],600 nM
same,Ki,[19],> 260000 nM
same,Ki,[20],850 nM
same,Kd,[21],121 nM
same,Ki,[22],1200 nM
same,Ki,[23],15700 nM
same,Ki,[24],783 nM
same,Ki,[25],330 nM
same,Ki,[26],2050 nM
same,Ki,[27],> 50000 nM
